Data set [1] relates to Panc1 (AR+) pancreatic cancer cells. Nature of the data set: ATP-dependent proliferation/viability assay, Panc1. The data set is classed as cell-based. The settings on record: Homo sapiens, read-out: IC50. The method, then: The experimental method consisted of: • 1. […] After 24 hours, 10 nM DHT (dihydrotestosterone) with or without anti-androgen compounds, or DMSO vehicle (negative control) was added to the cultures. • 3.
(§1) Each compounds was titrated from 3 uM to 200 uM.

Data set [2] relates to resting PBMC (quiescent, non-dividing cells). Kind of data set: IC50 on resting PBMC (intrinsic toxicity). The data set is classed as cell-based. The settings on record: Homo sapiens, resting PBMC.
Method: The IC50 in PBMC were tested in 2 different activation status: • stimulated—actively dividing cells • resting—quiescent, non-dividing cells
IC50 of the compounds was determined on fresh cells isolated from human blood (PBMC).
The subject of data set [3] is 22Rv1 prostate cancer cells. Kind of data set: In vitro proliferation, 22Rv1. It counts as cell-based. The settings on record: Homo sapiens, Table III, read-out: in vitro proliferation IC50 (μ/M). The protocol: as §1
The test system of another data set is MDA-MB-231 TNBC cells. Kind of data set: In vitro proliferation / cytotoxic assay, MDA-MB-231. It counts as cell-based. The settings on record: Homo sapiens; MDA-MB-231 (ER−PR−GR++); 72 hours; Table VI; unit inferred; read-out: IC50 on breast cancer cells.
For another data set, the target named is T1, wild type AR (AR-LBD) (Rattus norvegicus, UniProt P15207).
T1 construct: purchased life Technologies
T1 sequence (P15207 651-882 limits assumed): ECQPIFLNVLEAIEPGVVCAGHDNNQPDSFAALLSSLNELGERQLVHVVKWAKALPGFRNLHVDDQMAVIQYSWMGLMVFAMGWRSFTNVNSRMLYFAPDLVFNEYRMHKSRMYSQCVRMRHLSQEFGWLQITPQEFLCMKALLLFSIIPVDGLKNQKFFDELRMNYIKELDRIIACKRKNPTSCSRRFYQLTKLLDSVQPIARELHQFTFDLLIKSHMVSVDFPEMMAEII
Nature of the data set: AR competition binding assay (Polar Screen, fluorescence polarization). Conditions: displacement of Fluormone AL Green from AR-LBD; read-out: affinity for AR receptor (IC50 molar).

In data set [4] the target is T2, Glucocorticoid Receptor (Homo sapiens, UniProt P04150).
T2 construct: endogenous in cells; host or cells: human kidney epithelial cells
T2 sequence (P04150 1-777): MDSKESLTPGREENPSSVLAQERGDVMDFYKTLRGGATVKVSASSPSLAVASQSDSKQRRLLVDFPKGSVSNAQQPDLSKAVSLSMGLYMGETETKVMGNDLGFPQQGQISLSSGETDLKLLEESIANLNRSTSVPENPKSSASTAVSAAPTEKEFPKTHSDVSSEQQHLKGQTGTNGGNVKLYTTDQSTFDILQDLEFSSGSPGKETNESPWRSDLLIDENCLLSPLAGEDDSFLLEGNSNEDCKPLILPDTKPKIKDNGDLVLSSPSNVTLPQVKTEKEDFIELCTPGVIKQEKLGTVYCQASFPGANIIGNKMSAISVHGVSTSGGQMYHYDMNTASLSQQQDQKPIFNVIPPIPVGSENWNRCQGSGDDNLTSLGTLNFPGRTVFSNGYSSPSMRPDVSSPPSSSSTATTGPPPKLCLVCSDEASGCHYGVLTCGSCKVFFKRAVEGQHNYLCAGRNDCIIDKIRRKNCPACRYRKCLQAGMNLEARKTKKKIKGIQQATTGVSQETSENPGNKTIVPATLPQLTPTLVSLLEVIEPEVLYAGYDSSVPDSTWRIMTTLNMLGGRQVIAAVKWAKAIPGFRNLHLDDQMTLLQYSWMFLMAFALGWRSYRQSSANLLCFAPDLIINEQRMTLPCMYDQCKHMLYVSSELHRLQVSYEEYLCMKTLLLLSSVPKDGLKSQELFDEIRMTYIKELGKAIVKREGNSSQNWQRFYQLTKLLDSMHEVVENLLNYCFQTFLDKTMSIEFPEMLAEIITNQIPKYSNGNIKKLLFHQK
Nature of the data set: GR reporter assay, antagonist mode. The data set is classed as cell-based. Conditions: FIG. 7. The protocol:
(§2) The androgen and glucocorticoid hormones elicit divergent and often opposing effects in cells, tissues, and animals. […] CB-03-10 GR antagonist and agonist activities were tested in an in vitro assay. Briefly, human kidney epithelial cells were transfected with DNA construct containing GR binding sites linked to luminescent based reporter molecule. After 24 hours, cells were treated under antagonist or agonist modes. After an additional 24 hours, luminescence which is proportional to GR agonist transcriptional activity was quantitated.
Antagonist Assay was based on inhibition of luminescence induced by Dexamethasone (Dex).
The antagonist activity of CB-03-10 was compared to a known GR antagonist, Mifepristone (also called RU486) as shown in FIG. 7.

Data set [5] addresses T2, Glucocorticoid Receptor. Nature of the data set: GR reporter assay, agonist mode. It counts as cell-based. Conditions: at very high concentrations. The method, then: as §2
Agonist Assay—was based on induction of luminescence by CB-03-10
The agonist activity of CB-03-10 was compared to a RU486 which is known to not have agonist activity.
(A reporter such as luciferase makes a cellular process visible.)

The test system of data set [6] is Caspase 8, 9 and 3/7 in LNCaP cells. Kind of data set: Caspase activity in LNCaP cells. It counts as cell-based, human. The settings on record: 24 hours. The protocol: After 24 hours test compounds were added to cells, Gemcitabine (a known pancreatic cancer chemotherapeutic agent) and DMSO were used as positive and negative control, respectively. After 8, 24, & 48 hours incubation with test compounds, cells were lysed in buffer containing the caspase 3/7 or 8 or 9 substrate and a stable luciferase in proprietary buffers. The lysates were transferred to white opaque plates before measuring luminescence in a Tecan Safire instrument. Parallel plates treated identically, were used to determine viable cells. All caspase activities were corrected for the number of viable cells.
Same assay was repeated using LNCaP prostate cancer cell lines (FIG. 12). […] The results are shown in FIG. 12 at 24 hours incubation when the caspase activities peaked.

Data set [7] in a line: In vitro metabolism in rat plasma. The data set is classed as in vitro ADME. Conditions: 37° C.; FIG. 13. The method, then: To obtain some insights on the metabolism of CB-03-10 in human and rat plasma, a specific assay was designed. Briefly the compound was incubated at different time in human and rat plasma at 37° C. After incubation the samples were tested for presence of the intact compound by liquid chromatography.

A short description of data set [8]: In vivo pharmacokinetics in mouse plasma. Conditions: mice; iv 20 mg/kg, SC 40 mg/kg, PO 40 mg/kg. The protocol: The pharmacokinetic of CB-03-10 was evaluated in plasma of mice after intravenous (IV), subcutaneous (SC) and oral administration (PO).
Mice (3 per group) were administered with the following doses, blood was collected at the indicated times. Plasma samples were analyzed by HPLC-MS/MS.

Data set [9] concerns PSA secretion from LNCaP prostate cancer cells. Nature of the data set: PSA secretion from LNCaP cells (Elisa). It counts as cell-based. Conditions: Homo sapiens, 48 hours, read-out: IC50, inhibition of PSA secretion. The method, then: Prostate-specific antigen, or PSA, is a protein produced by cells of the prostate gland. The PSA test measures the level of PSA in a person's blood. The blood level of PSA is often elevated in men with prostate cancer and it used as surrogate marker to test prostate cancer progression in human population. After the observation that CB-03-10 was able to inhibit in vivo the growth of prostate cancer, the capability of the compound to inhibit in vitro PSA secretion from cancer cells was determined. […] After 48 hours incubation with test compounds, supernatants were harvested and tested with an Elisa assay for PSA and same cells were lysed for cell viability assessment.

Read-outs that look alike come from different tables or passages of the source.

The values below come from US10183030B2, “17α,21-diesters of cortexolone for use in the treatment of tumors” (COSMO TECHNOLOGIES LTD., priority 2014, dated 2019).

Method for MDA-MB-231 TNBC cells: After 72 hours incubation cell were harvested, lysed and viability determined using the cell titer glow assay for viability.
Method for wild type AR (AR-LBD): Briefly, the AR was added to a fluorescent androgen ligand (Fluormone™ AL Green) to from the complex AR-LBD. Competitors displaced the fluorescent Fluormone™ AL Green ligand from the AR-LBD causing the fluorescent ligand to tumble rapidly during its fluorescence lifetime, resulting in a low polarization value. Non competitors will not displace the fluorescent ligand from the complex, so the polarization value remains high. The shift in polarization value in the presence of test compounds is used to determine relative affinity of test compounds for AR-LBD.

For the compound `CCCCC(=O)O[C@]1(C(=O)COC(=O)CC)CC[C@H]2[C@@H]3CCC4=CC(=O)CC[C@]4(C)[C@H]3CC[C@@]21C` [CB-03-10, cortexolone 17α-valerate-21-propionate], the IC50 is 66 µM in data set [1] (PANC-1, 72 h, Panc1, 10 nM DHT, 3 days, Examples 3-4, Experiment 1); 68 µM in data set [1] (PANC-1, Panc1, Example 7, Experiment 1); 114 µM in data set [2] (Example 7, Experiment 1, read-out: IC50 (microM) on Resting PBMC); 120 µM in data set [2] (Example 7, Experiment 2, read-out: IC50 (microM) on Resting PBMC); 18 µM in [3]; 106 µM with MDA-MB-231 TNBC cells. In addition, the IC50 on wild type AR (AR-LBD) is 1.1 µM; in [9] it was 9 µM. Besides, at Glucocorticoid Receptor [4], the “GR antagonist potency relative to RU486” value is given as 10 times less. Also, the GR antagonist activity entry at Glucocorticoid Receptor [4] (inhibition of luminescence induced by Dexamethasone) is “potent antagonist”. The “GR agonist activity relative to 50 nM Dex” value on Glucocorticoid Receptor [5] stood at 20%. In [6], the “induction of Initiator (8 and 9) and Effector (3/7) caspase activities” value is “better than Enzalutamide”. Moreover, in data set [7], the “degradation in rat plasma” value is recorded as “degraded more rapidly in rat compared to human plasma”. Also, the “plasma level of parent compound” value in [8] is on record as “undetectable in plasma even after 1 hour regardless of the administration route”.
